Read-outs that look alike come from different tables or passages of the source.
How the values were obtained:
RSV A2 = assay: RSV plaque reduction assay in Hep-G2 cells; assay type: cell-based, respiratory syncytial virus (RSV); conditions: human respiratory syncytial virus, HepG2, 48 h, Hep-G2 cells, RSV A2, 2 days; mean of at least two experiments; read-out: RSV A2 Plaque EC50
Experimental: Compounds were subjected to RSV plaque reduction assays according to the following protocol. Plaque EC50 and cell toxicity CC50 values are a mean of at least two experiments and figures are rounded to whole units.
Hep-G2 cells (ECACC, 85011430) were passaged in flasks and seeded in 24-well plates in DMEM containing antibiotics and supplemented with 10% FBS. During inoculation and subsequent incubation, cells were cultured in DMEM containing 2% FBS. 100 plaque forming unit/well of RSV (RSV A2 ECACC, 0709161v) was mixed with eight serial dilutions of compound. Subsequently, 100 μL of the virus/compound mixtures was added to confluent Hep-G2 cell monolayers. The cells and virus/compound mixtures were incubated at 37° C. in a humidified 5% CO2 incubator for 2 h prior to removal of the inoculum and addition of 1 mL of overlay (DMEM containing 2% FBS and 0.8% CMC) containing compound dilutions. The cells and were incubated at 37° C. in a humidified 5% CO2 incubator for 2 days.
Cells were washed with PBS before adding 75/25% v/v EtOH/MeOH, for 3 min. Fixative was removed and plates were washed with PBS. A pre-titrated amount of the primary antibody was added in 200 μL PBS/2% milk powder, and plates incubated for 90 min at 37° C. The plates were washed 3 times with PBS/0.05% Tween20 before addition of rabbit anti-goat horse radish peroxidase in 200 μL PBS/2% milk powder, and incubated for 1 h at 37° C. Following three wash steps with PBS/0.05% Tween20, 200 μL ready-to-use TrueBlue was added and plates were incubated at rt for 10-15 min before washing with water. After removal of water, plates were air-dried in the dark. Plates were scanned and analysed using the Immunospot S6 Macro analyser, which is equipped with BioSpot analysis software for counting immunostained plaques (virospots). Plaque counts were used to calculate % infection relative to the mean of the plaque count in the virus control wells for RSV. The EC50 value was calculated as 50% reduction in signal, respectively, by interpolation of inhibition curves fitted with a 4-parameter nonlinear regression with a variable slope in Dotmatics. Plaque EC50 and cell toxicity CC50 values are a mean of at least two experiments and figures are rounded to whole units.

Cell cytotoxicity CC50 = assay type: cell-based; conditions: human, Hep-G2 cells; mean of at least two experiments unless (n = 1)
[1] = Liver microsomal stability, rat; assay type: in vitro ADME; conditions: pooled liver microsomes, pH 7.4, 0.5 mg/mL protein, 1 μM compound, NADPH, read-out: Liver Microsomal Stability t1/2
Experimental: (§1) Compounds were subjected to the following assays to investigate liver microsomal stability and hepatocyte stability.
(§2) Pooled liver microsomes were purchased from a reputable commercial supplier and stored at −80° C. prior to use. Microsomes (final protein concentration 0.5 mg/mL), 0.1 M phosphate buffer pH 7.4 and test compound (final substrate concentration 1 μM; final DMSO concentration 0.25%) were pre-incubated at 37° C. prior to the addition of NADPH (final concentration 1 mM) to initiate the reaction. The final incubation volume was 50 μL. A control incubation was included for each compound tested where 0.1 M phosphate buffer pH 7.4 was added instead of NADPH (minus NADPH). Two control compounds were included with each species. All incubations were performed singularly for each test compound. Each compound was incubated for 0, 5, 15, 30 and 45 min. The control (minus NADPH) was incubated for 45 min only. The reactions were stopped by transferring incubate into acetonitrile at the appropriate time points, in a 1:3 ratio. The termination plates are centrifuged at 3,000 rpm for 20 min at 4° C. to precipitate the protein. Following protein precipitation, the sample supernatants were combined in cassettes of up to 4 compounds, internal standard added, and samples analysed by LC-MS/MS. From a plot of In peak area ratio (compound peak area/internal standard peak area) against time, the gradient of the line was determined. Subsequently, half-life (t1/2) and intrinsic clearance (CLint) were calculated.

[2] = Liver microsomal stability, dog; assay type: in vitro ADME; conditions: pooled liver microsomes, pH 7.4, 0.5 mg/mL protein, 1 μM compound, NADPH, read-out: Liver Microsomal Stability t1/2
Experimental: as §1, §2

[3] = Liver microsomal stability, human; assay type: in vitro ADME; conditions: pooled liver microsomes, pH 7.4, 0.5 mg/mL protein, 1 μM compound, NADPH, read-out: Liver Microsomal Stability t1/2
Experimental: as §1, §2

[4] = Hepatocyte stability, rat; assay type: in vitro ADME; conditions: cryopreserved pooled hepatocytes, 3 μM compound, 60 min, read-out: Liver Hepatocyte Stability t1/2
Experimental: as §1
(§3) Cryopreserved pooled hepatocytes were purchased from a reputable commercial supplier and stored in liquid nitrogen prior to use. Williams E media supplemented with 2 mM L-glutamine and 25 mM HEPES and test compound (final substrate concentration 3 μM; final DMSO concentration 0.25%) are pre-incubated at 37° C. prior to the addition of a suspension of cryopreserved hepatocytes (final cell density 0.5 ×10^6 viable cells/mL in Williams E media supplemented with 2 mM L-glutamine and 25 mM HEPES) to initiate the reaction. The final incubation volume is 500 μL. Two control compounds were included with each species, alongside appropriate vehicle control. The reactions were stopped by transferring 50 μL of incubate to 100 μL acetonitrile containing internal standard at the appropriate time points. Samples were removed at 6 time points (0, 5, 15, 30, 45 and 60 min) over the course of a 60 min experiment. The termination plates were centrifuged at 2500 rpm at 4° C. for 30 min to precipitate the protein.
(§4) Following protein precipitation, the sample supernatants were combined in cassettes of up to 4 compounds and analysed using generic LC-MS/MS conditions. From a plot of In peak area ratio (compound peak area/internal standard peak area) against time, the gradient of the line was determined. Subsequently, half-life (t1/2) and intrinsic clearance (CLint) were calculated.

[5] = Hepatocyte stability, dog; assay type: in vitro ADME; conditions: cryopreserved pooled hepatocytes, 3 μM compound, 60 min, read-out: Liver Hepatocyte Stability t1/2
Experimental: as §1, §3, §4

[6] = Hepatocyte stability, human; assay type: in vitro ADME; conditions: cryopreserved pooled hepatocytes, 3 μM compound, 60 min, read-out: Liver Hepatocyte Stability t1/2
Experimental: as §1, §3, §4

[7] = In vivo pharmacokinetics in rats (IV and PO); parameters: species or system Male rats [Sprague Dawley (SD)]; conditions: male SD rat; for half-life / Vd / clearance / Cmax / AUC(0-t): Sprague Dawley, plasma; for Vd / clearance / Cmax: study IV 1 mg/kg; for Cmax: route not given; for AUC(0-t): read-out: PO AUClast; for F: PO 10 mg/kg vs IV 1 mg/kg
Experimental: The pharmacokinetics of compounds were studied in vivo in rats at doses of 1 mg/kg (IV) and 10 mg/kg (PO).
Male rats [Sprague Dawley (SD)] surgically prepared with a jugular vein cannula were treated with experimental compounds via intravenous administration (IV; n=3; 1 mg/kg) or oral administration (PO; n=3; 10 mg/kg). Compounds were formulated as a solution in 40:60 dimethylacetamide:saline (IV administration) and a solution of 10% DMSO, 10% cremaphor in water (80%) (PO administration). […] Serial blood samples were collected via the cannula at 0.02, 0.08, 0.25, 0.5, 1, 2, 4, 6, 8 and 24 h post IV dosing of compound, and at 0.08, 0.25, 0.5, 1, 2, 4, 6, 8 and 24 h post oral dosing of compound, and plasma was prepared by centrifugation and stored immediately at −80° C. Samples were subsequently thawed, prepared for analysis by protein precipitation with acetonitrile, and analysed by tandem LCMS using electrospray ionisation using a matrix-matched calibration curve. PK parameters were calculated from the resulting data.

RSV = conditions: Antimicrobial Agents and Chemotherapy, Sept. 2007, 3346-3353; cited from earlier work
[8] = IV 1 mg/kg, read-out: IV t1/2 (converted)
[9] = PO 10 mg/kg, read-out: PO t1/2 (converted)

SMILES	EC50 (RSV A2) [nM]	CC50 (Cell cytotoxicity CC50) [nM]	half-life at 1 μM [1] [h]	half-life at 1 μM [2] [h]	half-life at 1 μM [3] [h]	half-life at 3 μM [4] [h]	half-life at 3 μM [5] [h]	half-life at 3 μM [6] [h]	half-life [7, 8] [h]	half-life [7, 9] [h]	Vd ([7]; PO 10 mg/kg) [L/kg]	clearance ([7]; PO 10 mg/kg) [mL/min/kg]	Cmax ([7]; PO 10 mg/kg) [ng/mL]	AUC(0-t) ([7]; PO 10 mg/kg) [ng·h/mL]	F [7] [%]	anti-RSV activity (RSV)
O=C(N[C@H]1N=C(c2ccccc2)c2cccc(F)c2NC1=O)c1c(-c2ccc(CO)cc2F)nn2cccnc12 [Example 1, 2-[2-Fluoro-4-(hydroxymethyl)phenyl]-N-[(35)-9-fluoro-2-oxo-5-phenyl-1,3-dihydro-1,4-benzodiazepin-3-yl]pyrazolo[1,5-a]pyrimidine-3-carboxamide]	18	> 25000	0.69	10.6	5.48	1.38	2.62	5.55	1.5	3.1	0.75	11.5	788	3880	25.6	
CC(C)n1cc(-c2nn3cccnc3c2C(=O)N[C@H]2N=C(c3ccccc3)c3cccc(F)c3NC2=O)cn1 [Example 4, N-[(3S)-9-fluoro-2-oxo-5-phenyl-1,3-dihydro-1,4-benzodiazepin-3-yl]-2-(1-propan-2-ylpyrazol-4-yl)pyrazolo[1,5-a]pyrimidine-3-carboxamide]	37	> 25000	2.63	2.62	6.58	2.17	1.4	3.78	4.4	3.7	0.49	1.9	4790	57100	54.6	
O=C(N[C@H]1N=C(c2ccccc2)c2cccc(F)c2NC1=O)c1c(-c2cccc(CO)c2F)nn2cccnc12 [Example 18, 2-[2-Fluoro-3-(hydroxymethyl)phenyl]-N-[(3S)-9-fluoro-2-oxo-5-phenyl-1,3-dihydro-1,4-benzodiazepin-3-yl]pyrazolo[1,5-a]pyrimidine-3-carboxamide]	44	> 25000	0.983	6.5	8.83	1.57	> 3	> 3								
O=C(Nc1ccccc1F)N[C@H]1N=C(c2ccccc2)c2ccccc2NC1=O [RSV604]																sub-micromolar

Reference: patent publication US20240173332A1, “BENZO[…] TREATING OR PREVENTING RESPIRATORY SYNCYTIAL VIRUS INFECTION” (Pfizer Inc., priority 2021, published 2024)
